These results are taken from patent publication US6140353A, “N-(4-carb-amimidophenyl)glycineamide derivatives” (Hoffmann-La Roche Inc., priority 1997, dated 2000).

Each structure is given as a SMILES string. Where a name gives a salt, the structure may show the parent alone.

The test deals with T1, factor VIIa/tissue factor complex (Homo sapiens, UniProt P08709).
T1 construct: 9 nM of soluble factor VIIa
T1 sequence (P08709 213-466 limits assumed): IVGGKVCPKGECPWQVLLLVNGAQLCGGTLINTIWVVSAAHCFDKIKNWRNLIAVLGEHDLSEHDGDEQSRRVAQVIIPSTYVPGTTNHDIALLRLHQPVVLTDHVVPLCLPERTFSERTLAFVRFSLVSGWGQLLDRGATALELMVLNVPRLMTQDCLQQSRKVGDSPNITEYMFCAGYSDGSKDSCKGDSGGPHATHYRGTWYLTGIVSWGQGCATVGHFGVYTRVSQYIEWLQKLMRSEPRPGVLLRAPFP
T1 sequence (P08709 61-212 partner limits assumed): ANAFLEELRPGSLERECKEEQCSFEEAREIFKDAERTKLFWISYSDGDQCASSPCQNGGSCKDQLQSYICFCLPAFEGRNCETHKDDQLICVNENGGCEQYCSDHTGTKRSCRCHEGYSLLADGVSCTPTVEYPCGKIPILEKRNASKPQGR
T1 sequence (P13726 33-295 partner): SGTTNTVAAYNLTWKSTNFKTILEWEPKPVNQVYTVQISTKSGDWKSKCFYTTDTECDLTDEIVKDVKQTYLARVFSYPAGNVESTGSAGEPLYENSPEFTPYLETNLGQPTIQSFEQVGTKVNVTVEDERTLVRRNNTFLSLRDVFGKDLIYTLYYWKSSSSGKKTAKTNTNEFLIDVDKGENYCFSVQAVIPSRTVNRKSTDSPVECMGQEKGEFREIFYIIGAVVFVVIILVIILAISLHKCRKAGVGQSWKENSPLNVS
Put plainly: Inhibition of the amidolytic activity of the factor VIIa/tissue factor complex (chromogenic peptide substrate). Conditions: chromogenic substrate Chromozym-tPA (3.5 mM), pH 7.5, room temperature, 15 minutes incubation, 10 minutes kinetic reading. It counts as biochemical. The protocol: The measurements were carried out on microtiter plates at room temperature. To this end, per well of the plate, 100 μl of a solution of 26 nM of tissue factor, 9 nM of soluble factor VIIa and 8 mM of calcium chloride were added to 25 μl of a solution of the inhibitor in a buffer [pH 7.5, 100 mM, comprising 0.14 M NaCl, 0.1 M N(2-hydroxyethyl)piperazine-N'-(2-ethanesulphonic acid) (HEPES), 0.5 mg/l of fatty-acid-free BSA (bovine serum albumin) and 0.05% NaN3 ]. After an incubation time of 15 minutes, the reaction was started by addition of 50 μl of chromogenic substrate Chromozym-tPA (3.5 mM, MeSO2 -D-Phe-Gly-Arg-paranitroanilide), and the hydrolysis of the substrate was followed spectrophotometrically on a kinetic microtiter plate reader over 10 minutes. Using the plot of the inhibition curves, the Ki values were determined according to the method described in Biochem. J., 55:170-171 (1953).
By Ki is commonly meant the equilibrium dissociation constant of an inhibitor or competing ligand from its target. On to `COc1cc(OC)cc(C(Nc2ccc(C(=N)N)cc2)C(=O)NCc2ccccc2)c1` (racemic) [Example 5b, (R,S)-N-benzyl-2-(4-carbamimidoylphenylamino)-2-(3,5-dimethoxyphenyl)acetamide hydrochloride], for which the affinity corresponds to a Ki of 0.19 µM.
Next, `COc1cc(C(Nc2ccc(C(=N)N)cc2)C(=O)NCc2ccccc2)ccc1OCc1ccc2[nH]ccc2c1` (racemic) [Example 7e, (R,S)-N-benzyl-2-(4-carbamimidoylphenylamino)-2-[4-(1H-indol-5-ylmethoxy)-3-methoxyphenyl]acetamide acetate]: 0.11 µM; `COc1cc(C(Nc2ccc(C(=N)N)cc2)C(=O)NCc2ccccc2)ccc1OCc1ccc2c(c1)NCCC2` (racemic) [Example 7f, (R,S)-N-benzyl-2-(4-carbamimidoylphenylamino)-2-[3-methoxy-4-(1,2,3,4-tetrahydroquinolin-7-ylmethoxy)phenyl]acetamide acetate]: 0.26 µM; `COc1cc(C(Nc2ccc(C(=N)N)cc2)C(=O)NCc2ccccc2)ccc1OCc1ccccc1` (racemic) [Example 1, (R,S)-N-benzyl-2-(4-benzyloxy-3-methoxyphenyl)-2-(4-carbamimidoylphenylamino)acetamide hydrochloride]: 0.05 µM.
As for `COc1ccc(C(Nc2ccc(C(=N)N)cc2)C(=O)NC(c2ccccc2)c2ccccc2)cc1OC` (racemic) [Example 5c, (R,S)-N-benzhydryl-2-(4-carbamimidoylphenylamino)-2-(3,4-dimethoxyphenyl)acetamide hydrochloride], the figure is 0.16 µM; as for `COc1cc(C(Nc2ccc(C(=N)N)cc2)C(=O)NCc2ccccc2)ccc1OCCc1ccccc1` (racemic) [Example 7h, (R,S)-N-benzyl-2-(4-carbamimidoylphenylamino)-2-[3-methoxy-4-phenethyloxyphenyl)acetamide acetate], 0.21 µM; as for `COc1cc(C(Nc2ccc(C(=N)N)cc2)C(=O)NCc2ccccc2)cc(OC)c1OC` (racemic) [Example 5a, (R,S)-N-benzyl-2-(4-carbamimidoylphenylamino)-2-(3,4,5-trimethoxyphenyl)acetamide hydrochloride], 0.28 µM.
With `CCOc1cc(C(Nc2ccc(C(=N)N)cc2)C(=O)NCc2ccccc2)ccc1OCc1ccccc1` (racemic) [Example 5g, (R,S)-N-benzyl-2-(4-benzyloxy-3-ethoxyphenyl)-2-(4-carbamimidoylphenylamino)acetamide hydrochloride], affinity was put at a Ki of 0.044 µM.
In the case of `COc1ccc(C(Nc2ccc(C(=N)N)cc2)C(=O)NCc2ccccc2)cc1OC` (racemic) [Example 2a, (R,S)-N-benzyl-2-(4-carbamimidoylphenylamino)-2-(3,4-dimethoxyphenyl)acetamide hydrochloride], affinity was put at a Ki of 0.28 µM.
Turning to `COc1cc(C(Nc2ccc(C(=N)N)cc2)C(=O)NCc2ccccc2)ccc1OCc1ccc2cnccc2c1` (racemic) [Example 7n], the inhibition constant Ki amounted to 0.17 µM.
Next, `COc1cc(C(Nc2ccc(C(=N)N)cc2)C(=O)NCc2ccccc2)c(NS(=O)(=O)c2ccccc2)cc1OCc1ccccc1` (stereo not shown) [Example 8, 2-(2-phenylsulphonylamino-4-benzyloxy-5-methoxyphenyl)-N-benzyl-2-(4-carbamimidoylphenylamino)acetamide acetate]: 0.15 µM; `COc1cccc(COc2ccc(C(Nc3ccc(C(=N)N)cc3)C(=O)NCc3ccccc3)cc2OC)c1` (racemic) [Example 6, (R,S)-N-benzyl-2-(4-carbamimidoylphenylamino)-2-[3-methoxy-4-(3-methoxybenzyloxy)phenyl]) acetamide acetate]: 0.22 µM; `COc1cc(C(Nc2ccc(C(=N)N)cc2)C(=O)NCc2ccccc2)c(NS(=O)(=O)c2ccccc2)cc1O` (stereo not shown) [Example 10, 2-(2-phenylsulphonylamino-4-hydroxy-5-methoxyphenyl)-N-benzyl-2-(4-carbamimidoylphenylamino)acetamide acetate]: 0.112 µM.
For `COc1cc(C(Nc2ccc(C(=N)N)cc2)C(=O)NCc2ccccc2)ccc1OCc1ccncc1` (stereo not shown) [Example 7a, N-benzyl-2-(4-carbamimidoylphenylamino)-2-[3-methoxy-4-(pyridin-4-ylmethoxy)phenyl]acetamide acetate], the affinity, expressed as Ki, was 0.19 µM.
As to `COc1cc(C(Nc2ccc(C(=N)N)cc2)C(=O)Nc2ccccc2)ccc1OCc1ccccc1` (racemic) [Example 7s, (R,S)-2-(4-benzyloxy-3-methoxyphenyl)-2-(4-carbamimidoylphenylamino)-N-phenylacetamide acetate], the inhibition constant (Ki) came out at 0.17 µM.
As for `CCOc1ccc(C(Nc2ccc(C(=N)N)cc2)C(=O)NCc2ccccc2)cc1OCC` (racemic) [Example 5d, (R,S)-N-benzyl-2-(4-carbamimidoylphenylamino)-2-(3,4-diethoxyphenyl)acetamide hydrochloride], affinity was put at a Ki of 0.11 µM.
